Test system: TFG-MET allograft tumors
Experiment: RNA-sequencing, differential expression and GSEA of TFG-MET allograft tumors
Type: in vivo, mouse
Conditions: GSEA CAP vs Veh, C5 GO CC
Experimental: Error bars display standard error of mean, statistical significance was determined using t-test analysis. (****;p<0.0001, ***;p<0.001, **;p<0.01, *;p<0.05). […] Each dot represents an individual replicate. Error bars display standard error of the mean.
Each dot represents one gene.

CNC(=O)c1ccc(-c2cnc3ncc(Cc4ccc5ncccc5c4)n3n2)cc1F [Capmatinib]
NES GOCC_TRANSFERASE_COMPLEX (padj 2.19055e-16): -1.9384 | NES GOCC_NUCLEAR_SPECK (padj 5.1503e-15): -2.161 | NES GOCC_SPLICEOSOMAL_COMPLEX (padj 1.72395e-14): -2.415 | NES GOCC_CHROMOSOME_TELOMERIC_REGION (padj 7.63768e-14): -2.533 | NES GOCC_VACUOLAR_MEMBRANE (padj 7.95066e-13): 2.04 | NES GOCC_SMALL_SUBUNIT_PROCESSOME (padj 1.82971e-12): -2.75 | NES GOCC_NUCLEAR_PORE (padj 1.03541e-11): -2.588 | NES GOCC_FIBRILLAR_CENTER (padj 1.07393e-11): -2.424 | NES GOCC_CHROMATIN (padj 1.91271e-11): -1.714 | NES GOCC_PRERIBOSOME_LARGE_SUBUNIT_PRECURSOR (padj 2.94795e-11): -2.651 | NES GOCC_METHYLTRANSFERASE_COMPLEX (padj 4.53721e-11): -2.484 | NES GOCC_NUCLEAR_CHROMOSOME (padj 7.98955e-11): -2.219 | NES GOCC_RESPIRATORY_CHAIN_COMPLEX (padj 1.33777e-10): 2.821 | NES GOCC_NUCLEAR_PERIPHERY (padj 2.5338e-10): -2.3519 | NES GOCC_NUCLEAR_ENVELOPE (padj 3.91151e-9): -1.852 | NES GOCC_RIBONUCLEOPROTEIN_GRANULE (padj 4.48536e-8): -2.04 | NES GOCC_CATALYTIC_STEP_2_SPLICEOSOME (padj 5.62031e-8): -2.31 | NES GOCC_INTRACELLULAR_PROTEIN_CONTAINING_COMPLEX (padj 6.31135e-8): -1.665 | NES GOCC_TRANSCRIPTION_REGULATOR_COMPLEX (padj 7.03454e-8): -1.873 | NES GOCC_CAJAL_BODY (padj 7.11025e-8): -2.347 | NES GOCC_U2_TYPE_SPLICEOSOMAL_COMPLEX (padj 1.20627e-7): -2.187 | NES GOCC_CILIUM (padj 1.31956e-7): 1.633 | NES GOCC_CONDENSED_CHROMOSOME (padj 1.56303e-7): -2.04 | NES GOCC_IMMUNOGLOBULIN_COMPLEX (padj 1.76109e-7): 2.5876 | NES GOCC_CHROMOSOME_CENTROMERIC_REGION (padj 2.31902e-7): -2.023 | NES GOCC_TRANSFERASE_COMPLEX_TRANSFERRING_PHOSPHORUS_CONTAINING_GROUPS (padj 2.54822e-7): -1.9355 | NES GOCC_MOTILE_CILIUM (padj 6.10966e-7): 2.148 | NES GOCC_INNER_MITOCHONDRIAL_MEMBRANE_PROTEIN_COMPLEX (padj 1.03286e-6): 2.0966 | NES GOCC_HISTONE_METHYLTRANSFERASE_COMPLEX (padj 1.09294e-6): -2.238 | NES GOCC_TERTIARY_GRANULE (padj 1.29564e-6): 2.058 | NES GOCC_NUCLEAR_MEMBRANE (padj 1.93407e-6): -1.855 | NES GOCC_NADH_DEHYDROGENASE_COMPLEX (padj 2.62751e-6): 2.526 | NES GOCC_SM_LIKE_PROTEIN_FAMILY_COMPLEX (padj 3.06538e-6): -2.133 | NES GOCC_LATE_ENDOSOME_MEMBRANE (padj 3.31031e-6): 2.097 | NES GOCC_RNA_POLYMERASE_COMPLEX (padj 3.74343e-6): -2.068 | NES GOCC_HETEROCHROMATIN (padj 4.96006e-6): -2.172 | NES GOCC_PROTEIN_ACETYLTRANSFERASE_COMPLEX (padj 5.11894e-6): -2.115 | NES GOCC_CYTOPLASMIC_STRESS_GRANULE (padj 1.16359e-5): -2.152 | NES GOCC_VACUOLAR_LUMEN (padj 1.16897e-5): 1.934 | NES GOCC_SECRETORY_GRANULE_MEMBRANE (padj 1.40276e-5): 1.763 | NES GOCC_OXIDOREDUCTASE_COMPLEX (padj 1.71689e-5): 2.0601 | NES GOCC_EXTERNAL_SIDE_OF_PLASMA_MEMBRANE (padj 2.05111e-5): 1.72 | NES GOCC_CONDENSED_CHROMOSOME_CENTROMERIC_REGION (padj 2.22571e-5): -1.979 | NES GOCC_SNO_S_RNA_CONTAINING_RIBONUCLEOPROTEIN_COMPLEX (padj 3.58719e-5): -2.2 | NES GOCC_PHAGOCYTIC_VESICLE (padj 3.73055e-5): 1.9159 | NES GOCC_HOST_CELLULAR_COMPONENT (padj 4.79591e-5): -2.0648 | NES GOCC_SITE_OF_DNA_DAMAGE (padj 6.26347e-5): -2.003 | NES GOCC_AZUROPHIL_GRANULE (padj 6.43287e-5): 1.861 | NES GOCC_KINETOCHORE (padj 6.63265e-5): -1.897 | NES GOCC_AUTOPHAGOSOME (padj 6.99707e-5): 2.034 | NES GOCC_RNA_POLYMERASE_II_TRANSCRIPTION_REGULATOR_COMPLEX (padj 0.000108731): -1.813 | NES GOCC_PML_BODY (padj 0.000125034): -1.9697 | NES GOCC_EXORIBONUCLEASE_COMPLEX (padj 0.000154107): -2.113 | NES GOCC_ENDORIBONUCLEASE_COMPLEX (padj 0.000165343): -2.09 | NES GOCC_SMALL_NUCLEAR_RIBONUCLEOPROTEIN_COMPLEX (padj 0.000179714): -2.0229 | NES GOCC_IMMUNOGLOBULIN_COMPLEX_CIRCULATING (padj 0.000186482): 2.324 | NES GOCC_TERTIARY_GRANULE_MEMBRANE (padj 0.000272562): 2.004 | NES GOCC_VESICLE_LUMEN (padj 0.000275827): 1.602 | NES GOCC_LYSOSOMAL_LUMEN (padj 0.000331136): 1.858 | NES GOCC_REPLICATION_FORK (padj 0.000358866): -1.947 | NES GOCC_PRECATALYTIC_SPLICEOSOME (padj 0.000460788): -1.97 | NES GOCC_EUCHROMATIN (padj 0.000526361): -2.018 | NES GOCC_FICOLIN_1_RICH_GRANULE_MEMBRANE (padj 0.000558545): 2.085 | NES GOCC_CYTOCHROME_COMPLEX (padj 0.000649179): 2.153 | NES GOCC_PROTEIN_DNA_COMPLEX (padj 0.000678026): -1.836 | NES GOCC_SITE_OF_DOUBLE_STRAND_BREAK (padj 0.000757696): -1.897 | NES GOCC_PROTON_TRANSPORTING_TWO_SECTOR_ATPASE_COMPLEX (padj 0.000783651): 2.098 | NES GOCC_SPECIFIC_GRANULE (padj 0.000783651): 1.663 | NES GOCC_MLL1_2_COMPLEX (padj 0.000871379): -2.023 | NES GOCC_RESPIRATORY_CHAIN_COMPLEX_IV (padj 0.000871379): 2.188 | NES GOCC_CILIARY_TRANSITION_ZONE (padj 0.000882106): 1.976 | NES GOCC_BLOOD_MICROPARTICLE (padj 0.000959119): 1.774 | NES GOCC_PHAGOCYTIC_VESICLE_MEMBRANE (padj 0.00129051): 1.86 | NES GOCC_SECONDARY_LYSOSOME (padj 0.00130287): 2.219 | NES GOCC_TRANSCRIPTION_ELONGATION_FACTOR_COMPLEX (padj 0.00152226): -1.897 | NES GOCC_NUCLEAR_REPLICATION_FORK (padj 0.00173594): -1.935 | NES GOCC_TELOMERASE_HOLOENZYME_COMPLEX (padj 0.00174948): -1.978 | NES GOCC_H4_HISTONE_ACETYLTRANSFERASE_COMPLEX (padj 0.00185976): -1.863 | NES GOCC_CILIARY_PLASM (padj 0.00189918): 1.756 | NES GOCC_POLYSOME (padj 0.00219768): -1.796 | NES GOCC_PCG_PROTEIN_COMPLEX (padj 0.00279919): -1.842 | NES GOCC_T_CELL_RECEPTOR_COMPLEX (padj 0.00319727): 2.053 | NES GOCC_U2_TYPE_CATALYTIC_STEP_2_SPLICEOSOME (padj 0.00319727): -1.927 | NES GOCC_SIDE_OF_MEMBRANE (padj 0.00331543): 1.318 | NES GOCC_AZUROPHIL_GRANULE_LUMEN (padj 0.00386407): 1.725 | NES GOCC_EUKARYOTIC_TRANSLATION_INITIATION_FACTOR_3_COMPLEX (padj 0.00386407): -1.892 | NES GOCC_PROTON_TRANSPORTING_TWO_SECTOR_ATPASE_COMPLEX_PROTON_TRANSPORTING_DOMAIN (padj 0.00392051): 2.029 | NES GOCC_SYNAPTIC_VESICLE_MEMBRANE (padj 0.00392051): 1.708 | NES GOCC_SMN_SM_PROTEIN_COMPLEX (padj 0.00460194): -1.879 | NES GOCC_MHC_PROTEIN_COMPLEX (padj 0.00465351): 2.03 | NES GOCC_PLASMA_MEMBRANE_BOUNDED_CELL_PROJECTION_CYTOPLASM (padj 0.00477082): 1.5011 | NES GOCC_TRANSLATION_PREINITIATION_COMPLEX (padj 0.00477082): -1.882 | NES GOCC_9PLUS2_MOTILE_CILIUM (padj 0.00505147): 1.741 | NES GOCC_FICOLIN_1_RICH_GRANULE (padj 0.00518961): 1.502 | NES GOCC_ENDOSOME_MEMBRANE (padj 0.00609112): 1.2787 | NES GOCC_PRESPLICEOSOME (padj 0.00659701): -1.8326 | NES GOCC_ATPASE_COMPLEX (padj 0.007008): -1.657 | NES GOCC_ENDOLYSOSOME (padj 0.00786364): 1.964 | NES GOCC_EUKARYOTIC_48S_PREINITIATION_COMPLEX (padj 0.00886352): -1.849 | NES GOCC_PHAGOPHORE_ASSEMBLY_SITE (padj 0.00895831): 1.892 | NES GOCC_INTRACILIARY_TRANSPORT_PARTICLE (padj 0.00906928): 1.972 | NES GOCC_TRANSCRIPTION_REPRESSOR_COMPLEX (padj 0.00954254): -1.652
